Reference: US20120020915A1, “Compounds and Methods for Treating Cancer and Diseases of the Central Nervous System” (QUEENS UNIVERSITY AT KINGSTON, priority 2007, published 2012)
Entries after “also recorded” stand apart in the source; their conditions may differ.

Experiments:
HO-2 (rat brain) = target: T1, HO-2 (rat brain) (Rattus norvegicus, UniProt P23711); assay: HO enzymatic activity, rat brain microsomal fraction (CO formation from methemalbumin); type: biochemical; details: CO formation from methemalbumin, mean ± SD of replicate experiments, read-out: IC50 HO-2 (rat brain)/μM)
T1 construct: brain microsomes were used as a source of HO-2; from tissue; host or cells: brain microsomal fraction of adult male Sprague-Dawley rats
T1 sequence (P23711 1-315): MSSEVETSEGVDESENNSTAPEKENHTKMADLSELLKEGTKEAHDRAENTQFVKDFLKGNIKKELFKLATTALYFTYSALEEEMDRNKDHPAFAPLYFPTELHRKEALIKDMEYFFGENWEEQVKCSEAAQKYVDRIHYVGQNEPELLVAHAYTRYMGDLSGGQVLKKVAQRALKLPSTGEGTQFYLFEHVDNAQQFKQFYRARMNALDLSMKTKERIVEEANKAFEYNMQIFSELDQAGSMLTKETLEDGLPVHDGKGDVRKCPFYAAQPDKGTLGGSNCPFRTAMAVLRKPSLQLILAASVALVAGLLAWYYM

[1] = test system: human metastatic prostate cancer PC-3M cells; assay: Orthotopic PC-3M prostate cancer model in SCID mice, primary tumor and metastases; type: in vivo, male SCID; details: 32-mouse study
From the text: PC-3 & PC-3M (human prostate carcinoma). The PC-3 human prostate cancer cell line was originally obtained from the American Type Culture Collection (Rockville, Md.). The PC-3M cell line was kindly provided by Dr. Issac (MD Anderson Cancer Center). This cell variant was derived from a liver metastasis produced by the parental PC-3 cells growing in the spleen of a nude mouse [Pettaway C A, Pathak S, Greene G. et al. Selection of highly metastatic variants of different human prostate carcinomas utilizing orthotopic implantation in nude mice. Clin Cancer Res 1996; 2:1627-36].
Cell cultures were maintained in 5% CO2/95% air at 37° C. SKMEL-V (human melanoma cells). SKMEL-V cells were derived from SKMEL-24 cells (ATCC) by overexpression of mouse VEGF.
Exponentially growing cells were harvested using a brief exposure to 0.25% trypsins:0.1% EDTA solution (w/v).
Mice were anesthesized with isofluorane given by inhalation and placed in a supine position. Betadine and 75% Ethanol was used to clean the skin of abdomen. A low midline incision was made and the prostate was exposed. Fifty microliters of HBSS containing 1×10^6 cells was injected into a lateral lobe of the prostate. […]
Primary tumors in the prostate were excised, measured, and weighed. […]
The in vivo data was analyzed using the Mann-Whitney U test.

rat C6 glioma cells = assay: Cell proliferation assay ([3H] thymidine incorporation), C6 glioma cells; type: cell-based; details: 6.5 μM, 18 h, hHO-1 transfected rat C6 glioma cells; hydrochloride
Method: Rat C6 glioma cells were cultivated in high glucose DMEM supplemented with 10% heat-inactivated fetal bovine serum, […] glutamine, and penicillin-streptomycin (50 U/mL and 50 μg/in L, respectively). […] All cultures were incubated at 37° C. in humidified 95% air-5% CO2.
Cells were seeded in 24-well plates at 1×10^6 cells/mL/well. Upon reaching >90% confluence, cells in each well were transiently transfected with 1.6 μg of plasmid DNA-Lipofectamine 2000 complex using Lipofectamine 2000 method according to manufacturer instructions (Invitrogen). 1.6 μg of plasmid DNA and 4 μL of Lipofectamine 2000 reagent were diluted individually in 100 μL opti-MEM I and incubated for 5 minutes at room temperature with gentle mixing. […]
Cell proliferation was determined by [^3H] thymidine incorporation: Cells were plated in 24-well plates at 10^6 cells/mL/well in complete medium. […] The cells were trypsinized and collected, air-dried on 21 mm glass microfibre filters (Whatman International Ltd., Maidstone, England) and analyzed by scintillation counting in a Wallac-Liquid Scintillator Counter (Perkin Elmer Life Sciences, Boston, Mass., USA). [^3H] thymidine incorporation was expressed as counts per min (cpm) per mL.

SMILES | IC50 (HO-2 (rat brain)) [µM] | formation of macroscopic lymph node metastases [1] | 3H-thymidine incorporation, hHO-1 transfected cells (rat C6 glioma cells)
Cl.FC[C@@H]1CO[C@@](CCc2ccc(Cl)cc2)(Cn2ccnc2)O1 [QC-47, (2R,4S)-1-{2-[2-(4-Chlorophenyl)ethyl]-4-fluoromethyl-[1,3]dioxolan-2-ylmethyl}-1H-imidazole hydrochloride] | > 100 |  | 
Brc1ccc(CCC2(Cn3ccnc3)OCCO2)cc1.Cl [QC-56, 1-((2-(2-(4-Bromophenyl)ethyl)-1,3-dioxolan-2-yl)methyl)-1H-imidazole hydrochloride] |  | complete inhibition | significantly attenuated the effects of hHO-1 transfection on ^3H-thymidine incorporation; also recorded: this rate of proliferation was attenuated
